≈ marks a conversion by molar mass, not a printed value. Like-named read-outs stand apart in the source and are kept apart here.
Legend:
Test in all cases: In-vitro antimicrobial activity primary screen (agar dilution MIC)
Assay type in all cases: cell-based
[1] = test system: Staphylococcus aureus CMX 553; settings: Staphylococcus aureus, CMX553, 24 h, BHI agar, 20-24 h, read-out: MIC
Procedure, shortened: (§1)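 MIC is read as the lowest compound level yielding no growth, slight haze or sparse colonies on the inoculum spot, relative to a drug-free plate. Strains were replicator-inoculated (1:100 dilution) onto BHI agar plates holding twelve dilutions and held at 35-37 °C for 20-24 h, with erythromycin A as comparator.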

[2] = test system: Streptococcus pyrogenes EES61; settings: BHI agar, 20-24 h, read-out: MIC
Procedure, shortened: (§2)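 Growth inhibition was scored on Brain Heart Infusion agar after 20-24 h incubation at 35-37° C; the MIC is the lowest tested concentration yielding no growth, a slight haze or sparsely isolated colonies on the inoculum spot.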

[3] = test system: Pseudomonas aeruginosa K799/61; settings: Pseudomonas aeruginosa K799/61; BHI agar, 20-24 h; read-out: MIC
Procedure, shortened: as §2

[4] = test system: Pseudomonas aeruginosa K799/WT
Procedure, shortened: as §2

[5] = test system: Escherichia coli JUHL; settings: Escherichia coli JUHL, BHI agar, 20-24 h
Procedure, shortened: as §2

[6] = test system: Enterobacter aerogenes ATCC 13048; settings: Klebsiella aerogenes, Enterobacter aerogenes ATCC 13048, BHI agar, 20-24 h
Procedure, shortened: as §2

[7] = test system: Providencia stuartii CMX 640
Procedure, shortened: as §2

[8] = test system: Pseudomonas cepacia 2961; settings: BHI agar, 20-24 h
Procedure, shortened: as §2

[9] = test system: Escherichia coli H560; settings: Escherichia coli H560, BHI agar, 20-24 h
Procedure, shortened: as §2

[10] = test system: Micrococcus luteus ATCC 4698; settings: Micrococcus luteus, ATCC4698, 24 h, BHI agar, 20-24 h
Procedure, shortened: as §2

[11] = test system: Pseudomonas aeruginosa BMH10; settings: BHI agar, 20-24 h
Procedure, shortened: as §2

[12] = test system: Staphylococcus aureus 45 RAR2; settings: Staphylococcus aureus, 45RAR2, 24 h, BHI agar, 20-24 h
Procedure, shortened: as §2

[13] = test system: Streptococcus agalactiae CMX 508; settings: Streptococcus agalactiae, CMX508, 24 h, BHI agar, 20-24 h
Procedure, shortened: as §2

[14] = test system: Staphylococcus aureus 642A; settings: BHI agar, 20-24 h, read-out: MIC
Procedure, shortened: as §2

[15] = test system: Staphylococcus epidermidis 3519; settings: BHI agar, 20-24 h
Procedure, shortened: as §2

[16] = test system: Escherichia coli SS; settings: BHI agar, 20-24 h
Procedure, shortened: as §2

[17] = test system: Staphylococcus aureus NCTC 10649; settings: NCTC10649, BHI agar, 20-24 h, read-out: MIC
Procedure, shortened: as §2

[18] = test system: Escherichia coli DC-2; settings: Escherichia coli DC-2, BHI agar, 20-24 h
Procedure, shortened: as §2

[19] = test system: Staphylococcus aureus 45; settings: BHI agar, 20-24 h
Procedure, shortened: as §2

[20] = test system: Staphylococcus aureus A5177
Procedure, shortened: as §2

[21] = test system: Micrococcus luteus ATCC 9341; settings: ATCC9341, BHI agar, 20-24 h, read-out: MIC
Procedure, shortened: as §2

[22] = test system: Pseudomonas aeruginosa A5007
Procedure, shortened: as §2

[23] = test system: Acinetobacter SP CMX 669; settings: Acinetobacter SP CMX 669, BHI agar, 20-24 h
Procedure, shortened: as §2

[24] = test system: Streptococcus bovis A5169; settings: Streptococcus equinus, A5169, 24 h, BHI agar, 20-24 h
Procedure, shortened: as §2

[25] = test system: Enterococcus faecium ATCC 8043
Procedure, shortened: as §2

[26] = test system: Streptococcus pyrogenes 2548 INDUC; settings: BHI agar, 20-24 h
Procedure, shortened: as §2

[27] = test system: Staphylococcus aureus ATCC 6538P; settings: Staphylococcus aureus, ATCC6538P, 24 h, BHI agar, 20-24 h
Procedure, shortened: as §2

[28] = test system: Staphylococcus aureus CMX 503A; settings: Staphylococcus aureus, CMX503A, 24 h, BHI agar, 20-24 h, read-out: MIC
Procedure, shortened: as §1

[29] = test system: Staphylococcus aureus CMX 686B; settings: CMX686B, BHI agar, 20-24 h, read-out: MIC
Procedure, shortened: as §1

[30] = test system: Klebsiella pneumoniae ATCC 8045; settings: ATCC8045; Klebsiella pneumoniae ATCC 8045; BHI agar, 20-24 h; read-out: MIC
Procedure, shortened: as §2

[31] = CMX640, Providencia stuartii CMX 640, BHI agar, 20-24 h, read-out: MIC
[32] = Burkholderia cepacia, read-out: MIC
[33] = Staphylococcus aureus, A5177, 24 h
[34] = Pseudomonas aeruginosa A5007, BHI agar, 20-24 h, read-out: MIC
[35] = Enterococcus faecium, ATCC8043, 24 h

Compound | MIC [1] [µg/mL] | MIC [2] [µg/mL] | MIC [3] [µg/mL] | MIC ([5]; read-out: MIC) [µg/mL] | MIC ([6]; ATCC13048, read-out: MIC) [µg/mL] | MIC [7, 31] [µg/mL] | MIC [8, 32] [µg/mL] | MIC ([9]; read-out: MIC) [µg/mL] | MIC [10] [µg/mL] | MIC ([11]; read-out: MIC) [µg/mL] | MIC [12] [µg/mL] | MIC [13] [µg/mL] | MIC [14] [µg/mL] | MIC ([15]; read-out: MIC) [µg/mL] | MIC ([16]; Escherichia coli, 24 h) [µg/mL] | MIC [17] [µg/mL] | MIC ([18]; DC2, read-out: MIC) [µg/mL] | MIC [21] [µg/mL] | MIC [24] [µg/mL] | MIC [27] [µg/mL] | other results
CC[C@H]1OC(=O)[C@H](C)[C@@H](O[C@H]2C[C@@](C)(OC)[C@@H](NC(N)=O)[C@H](C)O2)[C@H](C)[C@@H](O[C@@H]2O[C@H](C)C[C@H](N(C)C)[C@H]2O)[C@](C)(O)C[C@@H](C)[C@@H]2O[C@@]1(C)C(=O)[C@H]2C [Example 32, (4"S,9S)-4"-[(aminocarbonyl)amino]-9-deoxo-4",11,12-trideoxy-9,12-epoxy-11-oxoerythromycin A] | 0.2 (≈ 0.264 µM) | 0.02 (≈ 0.0264 µM) | 0.78 (≈ 1.03 µM) | 100 (≈ 132 µM) | 100 (≈ 132 µM) | > 100 | > 100 | 100 (≈ 132 µM) | 0.2 (≈ 0.264 µM) | 100 (≈ 132 µM) | 0.39 (≈ 0.515 µM) | 0.05 (≈ 0.066 µM) | 0.1 (≈ 0.132 µM) | 0.2 (≈ 0.264 µM) | 0.2 (≈ 0.264 µM) | 0.1 (≈ 0.132 µM) | 100 (≈ 132 µM) | 0.05 (≈ 0.066 µM) | 0.05 (≈ 0.066 µM) | 0.1 (≈ 0.132 µM) | MIC ([4]; Pseudomonas aeruginosa, K799/WT, 24 h, Pseudomonas aeruginosa K799/WT, BHI agar, 20-24 h): 50 µg/mL (≈ 66 µM); MIC ([19]; read-out: MIC): 0.2 µg/mL (≈ 0.264 µM); MIC [20, 33]: > 100 µg/mL; MIC [22, 34]: > 100 µg/mL; MIC ([23]; SPCMX669, read-out: MIC): 100 µg/mL (≈ 132 µM); MIC [25, 35]: 0.2 µg/mL (≈ 0.264 µM); MIC ([26]; read-out: MIC): 0.78 µg/mL (≈ 1.03 µM)
CC[C@H]1OC(=O)[C@H](C)[C@@H](O[C@H]2C[C@@](C)(OC)[C@@H](O)[C@H](C)O2)[C@H](C)[C@@H](O[C@@H]2O[C@H](C)C[C@H](N(C)C)[C@H]2O)[C@](C)(OC)C[C@@H](C)[C@@H]2O[C@@]1(C)[C@@H](O)[C@H]2C [Example 28A] | 0.2 (≈ 0.273 µM) | 0.02 (≈ 0.0273 µM) | 0.78 (≈ 1.07 µM) |  |  |  |  |  | 0.1 (≈ 0.137 µM) |  | 0.2 (≈ 0.273 µM) | 0.05 (≈ 0.0683 µM) | 0.2 (≈ 0.273 µM) | 0.2 (≈ 0.273 µM) | 0.2 (≈ 0.273 µM) | 0.2 (≈ 0.273 µM) |  | 0.05 (≈ 0.0683 µM) | 0.02 (≈ 0.0273 µM) | 0.2 (≈ 0.273 µM) | MIC ([4]; Pseudomonas aeruginosa, K799/WT, 24 h): > 100 µg/mL; MIC ([5]; Escherichia coli, 24 h): 25 µg/mL (≈ 34.2 µM); MIC ([6]; ATCC13048, 24 h): 50 µg/mL (≈ 68.3 µM); MIC ([7]; Providencia stuartii, CMX640, 24 h): > 100 µg/mL; MIC ([8]; Burkholderia cepacia, 2961, 24 h): > 100 µg/mL; MIC ([9]; Escherichia coli, H560, 24 h): 25 µg/mL (≈ 34.2 µM); MIC ([11]; Pseudomonas aeruginosa, BMH10, 24 h): 50 µg/mL (≈ 68.3 µM); MIC ([18]; Escherichia coli, DC2, 24 h): 25 µg/mL (≈ 34.2 µM); MIC ([19]; Staphylococcus aureus, 45, 24 h): 3.1 µg/mL (≈ 4.24 µM); MIC [20, 33]: 0.2 µg/mL (≈ 0.273 µM); MIC ([22]; Pseudomonas aeruginosa, A5007, 24 h): > 100 µg/mL; MIC ([23]; Acinetobacter, SPCMX669, 24 h): 6.2 µg/mL (≈ 8.47 µM); MIC ([25]; ATCC8043, Enterococcus faecium ATCC 8043, BHI agar, 20-24 h, read-out: MIC): 0.05 µg/mL (≈ 0.0683 µM); MIC ([26]; Streptococcus, 2548INDUC, 24 h): 3.1 µg/mL (≈ 4.24 µM)
CC[C@H]1OC(=O)[C@H](C)[C@@H](O[C@H]2C[C@@](C)(OC)[C@H](NC(C)=O)[C@H](C)O2)[C@H](C)[C@@H](O[C@@H]2O[C@H](C)C[C@H](N(C)C)[C@H]2O)[C@](C)(O)C[C@@H](C)[C@@H]2O[C@@]1(C)C(=O)[C@H]2C [Example 10, (4"R,9S) 4"-Acetylamino-9-deoxo-4",11,12-trideoxy-9,12-epoxy-11-oxoerythromycin A] | 0.39 (≈ 0.515 µM) | 0.02 (≈ 0.0264 µM) | 1.56 (≈ 2.06 µM) | > 100 | > 100 | > 100 | > 100 | 100 (≈ 132 µM) | 0.2 (≈ 0.264 µM) | > 100 | 0.39 (≈ 0.515 µM) | 0.1 (≈ 0.132 µM) |  |  |  |  | > 100 | 0.05 (≈ 0.0661 µM) | 0.2 (≈ 0.264 µM) | 0.39 (≈ 0.515 µM) | MIC [28]: 0.39 µg/mL (≈ 0.515 µM); MIC [29]: 0.39 µg/mL (≈ 0.515 µM); MIC ([4]; Pseudomonas aeruginosa K799/WT, BHI agar, 20-24 h, read-out: MIC): > 100 µg/mL; MIC ([15]; Staphylococcus epidermidis, 3519, 24 h): 0.39 µg/mL (≈ 0.515 µM); MIC ([16]; read-out: MIC): 0.39 µg/mL (≈ 0.515 µM); MIC ([19]; read-out: MIC): 0.39 µg/mL (≈ 0.515 µM); MIC ([20]; Staphylococcus aureus A5177, BHI agar, 20-24 h, read-out: MIC): 0.39 µg/mL (≈ 0.515 µM); MIC [30]: > 100 µg/mL; MIC [22, 34]: > 100 µg/mL; MIC ([23]; SPCMX669, read-out: MIC): 50 µg/mL (≈ 66.1 µM); MIC [25, 35]: 0.2 µg/mL (≈ 0.264 µM); MIC ([26]; read-out: MIC): 0.78 µg/mL (≈ 1.03 µM)

From patent publication US5288709A, “Erythromycin derivatives” (priority 1991, dated 1994)
